Legend:
Assay type in all cases: cell-based
Conditions in all cases: compounds at 50 nM and 500 nM
[1] = target: T1, IKZF1 (Homo sapiens, UniProt Q13422+Q96SW2); assay: Western blot degradation of IKZF1 in hPBMCs (24 h)
T1 construct: The supernatant was aspirated as the extracted total cell protein; endogenous in cells; host or cells: human peripheral blood mononuclear cells (hPBMCs)
Outline: (§1)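 Read-out is Western blot band grayscale, divided by internal control band and normalised to give percent target protein remaining; degradation rate is 1 minus that value. Cells were human PBMCs exposed to compound at 50 nM and 500 nM for 24 hours.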

[2] = target: T2, IKZF3 (Homo sapiens, UniProt Q96SW2+Q9UKT9); assay: Western blot degradation of IKZF3 in hPBMCs (24 h)
T2 construct: The supernatant was aspirated as the extracted total cell protein; endogenous in cells; host or cells: human peripheral blood mononuclear cells (hPBMCs)
T2 sequence (Q9UKT9 whole entry): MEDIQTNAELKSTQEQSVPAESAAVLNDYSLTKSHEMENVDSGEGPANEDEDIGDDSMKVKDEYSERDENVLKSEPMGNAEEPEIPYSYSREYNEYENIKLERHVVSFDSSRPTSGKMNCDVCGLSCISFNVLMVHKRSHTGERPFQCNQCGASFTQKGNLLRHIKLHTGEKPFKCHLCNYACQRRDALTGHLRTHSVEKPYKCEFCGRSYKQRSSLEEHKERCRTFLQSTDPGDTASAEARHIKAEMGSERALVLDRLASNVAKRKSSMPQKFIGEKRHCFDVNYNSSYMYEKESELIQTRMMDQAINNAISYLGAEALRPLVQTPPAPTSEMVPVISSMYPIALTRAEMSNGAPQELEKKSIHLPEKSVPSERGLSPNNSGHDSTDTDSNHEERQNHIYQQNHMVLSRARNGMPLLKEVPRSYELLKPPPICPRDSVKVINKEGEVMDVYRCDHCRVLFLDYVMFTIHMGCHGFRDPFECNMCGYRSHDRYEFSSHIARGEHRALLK
T2 sequence (Q96SW2 whole entry): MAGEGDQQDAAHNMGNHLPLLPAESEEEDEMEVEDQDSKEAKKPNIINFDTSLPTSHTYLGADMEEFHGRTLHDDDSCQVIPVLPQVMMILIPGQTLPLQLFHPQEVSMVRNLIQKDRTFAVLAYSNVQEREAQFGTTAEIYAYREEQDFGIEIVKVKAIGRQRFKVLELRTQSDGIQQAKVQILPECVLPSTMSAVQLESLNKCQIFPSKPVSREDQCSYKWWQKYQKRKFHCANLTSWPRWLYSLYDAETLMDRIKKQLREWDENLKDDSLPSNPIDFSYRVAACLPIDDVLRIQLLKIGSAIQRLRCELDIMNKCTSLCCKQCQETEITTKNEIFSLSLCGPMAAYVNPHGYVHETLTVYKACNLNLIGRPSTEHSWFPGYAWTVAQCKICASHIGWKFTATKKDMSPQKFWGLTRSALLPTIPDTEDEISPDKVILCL
T2 sequence (Q16531 whole entry partner): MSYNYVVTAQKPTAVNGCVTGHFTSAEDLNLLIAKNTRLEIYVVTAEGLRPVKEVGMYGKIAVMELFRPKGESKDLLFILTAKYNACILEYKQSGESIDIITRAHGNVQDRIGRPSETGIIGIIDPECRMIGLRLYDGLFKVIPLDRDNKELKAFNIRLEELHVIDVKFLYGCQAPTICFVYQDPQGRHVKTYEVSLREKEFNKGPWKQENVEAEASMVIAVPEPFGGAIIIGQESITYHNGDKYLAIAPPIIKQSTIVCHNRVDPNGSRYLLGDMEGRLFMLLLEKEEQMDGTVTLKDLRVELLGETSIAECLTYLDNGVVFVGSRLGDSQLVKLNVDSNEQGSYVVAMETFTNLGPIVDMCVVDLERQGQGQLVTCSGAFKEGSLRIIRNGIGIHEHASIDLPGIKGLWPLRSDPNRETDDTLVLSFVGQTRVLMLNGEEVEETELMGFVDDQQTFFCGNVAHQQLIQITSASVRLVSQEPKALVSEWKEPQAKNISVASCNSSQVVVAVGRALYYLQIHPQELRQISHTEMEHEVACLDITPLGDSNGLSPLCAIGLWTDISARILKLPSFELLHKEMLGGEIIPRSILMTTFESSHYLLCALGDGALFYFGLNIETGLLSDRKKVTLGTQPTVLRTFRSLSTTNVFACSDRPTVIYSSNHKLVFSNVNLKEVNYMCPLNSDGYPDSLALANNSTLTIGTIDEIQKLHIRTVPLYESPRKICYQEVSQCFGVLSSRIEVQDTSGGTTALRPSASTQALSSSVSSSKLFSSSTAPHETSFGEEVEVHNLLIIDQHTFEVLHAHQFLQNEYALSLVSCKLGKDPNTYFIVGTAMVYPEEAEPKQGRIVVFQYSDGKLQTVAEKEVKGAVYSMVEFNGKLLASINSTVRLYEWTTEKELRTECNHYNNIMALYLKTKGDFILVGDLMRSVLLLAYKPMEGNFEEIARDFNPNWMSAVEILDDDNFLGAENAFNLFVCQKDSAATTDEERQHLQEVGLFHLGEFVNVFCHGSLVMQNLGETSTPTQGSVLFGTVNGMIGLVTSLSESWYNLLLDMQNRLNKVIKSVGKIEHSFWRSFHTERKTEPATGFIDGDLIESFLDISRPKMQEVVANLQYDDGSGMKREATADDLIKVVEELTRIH
Outline: as §1

[3] = target: T3, CK1α (Homo sapiens, UniProt P48729+Q96SW2); assay: Western blot degradation of CK1α in hPBMCs (24 h)
T3 construct: The supernatant was aspirated as the extracted total cell protein; endogenous in cells; host or cells: human peripheral blood mononuclear cells (hPBMCs)
T3 sequence (P48729 whole entry): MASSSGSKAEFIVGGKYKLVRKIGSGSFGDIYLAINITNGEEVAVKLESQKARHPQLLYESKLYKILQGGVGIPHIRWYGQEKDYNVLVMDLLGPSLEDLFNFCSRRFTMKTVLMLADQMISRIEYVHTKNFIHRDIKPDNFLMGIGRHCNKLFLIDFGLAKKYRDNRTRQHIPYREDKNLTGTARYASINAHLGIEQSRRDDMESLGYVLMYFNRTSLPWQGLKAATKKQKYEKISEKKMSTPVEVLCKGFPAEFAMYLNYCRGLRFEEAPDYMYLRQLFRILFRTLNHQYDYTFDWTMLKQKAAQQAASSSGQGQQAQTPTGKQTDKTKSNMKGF
T3 sequence (Q96SW2 whole entry): as the sequence (Q96SW2 whole entry) above
T3 sequence (Q16531 whole entry partner): as the sequence (Q16531 whole entry partner) above
Outline: as §1

[4] = target: T4, WEE1 (Homo sapiens, UniProt P30291+Q96SW2); assay: Western blot degradation of WEE1 in hPBMCs (24 h)
T4 construct: The supernatant was aspirated as the extracted total cell protein; endogenous in cells; host or cells: human peripheral blood mononuclear cells (hPBMCs)
T4 sequence (P30291 whole entry): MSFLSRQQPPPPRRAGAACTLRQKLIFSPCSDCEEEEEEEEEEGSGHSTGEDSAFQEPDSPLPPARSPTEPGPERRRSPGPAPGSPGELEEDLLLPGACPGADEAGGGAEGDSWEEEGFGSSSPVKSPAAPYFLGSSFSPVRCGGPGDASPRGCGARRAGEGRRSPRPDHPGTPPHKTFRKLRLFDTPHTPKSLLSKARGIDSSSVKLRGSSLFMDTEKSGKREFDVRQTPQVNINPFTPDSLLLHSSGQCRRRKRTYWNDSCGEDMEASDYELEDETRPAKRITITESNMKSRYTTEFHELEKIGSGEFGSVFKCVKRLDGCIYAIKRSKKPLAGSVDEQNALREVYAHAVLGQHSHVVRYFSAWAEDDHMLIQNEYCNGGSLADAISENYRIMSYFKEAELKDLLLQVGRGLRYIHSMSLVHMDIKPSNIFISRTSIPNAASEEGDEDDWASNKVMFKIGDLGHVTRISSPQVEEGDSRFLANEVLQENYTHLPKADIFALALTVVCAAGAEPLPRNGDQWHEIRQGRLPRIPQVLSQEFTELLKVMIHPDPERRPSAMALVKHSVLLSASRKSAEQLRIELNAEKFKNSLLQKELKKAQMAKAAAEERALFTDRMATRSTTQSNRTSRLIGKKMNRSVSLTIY
T4 sequence (Q96SW2 whole entry): as the sequence (Q96SW2 whole entry) above
T4 sequence (Q16531 whole entry partner): as the sequence (Q16531 whole entry partner) above
Outline: as §1

[5] = target: T5, GSPT1 (Homo sapiens, UniProt P15170+Q96SW2); assay: Western blot degradation of GSPT1 in hPBMCs (24 h)
T5 construct: The supernatant was aspirated as the extracted total cell protein; endogenous in cells; host or cells: human peripheral blood mononuclear cells (hPBMCs)
Outline: as §1

[6] = target: T6, IKZF2 (Homo sapiens, UniProt Q96SW2+Q9UKS7); assay: Western blot degradation of IKZF2 in hPBMCs (24 h)
T6 construct: The supernatant was aspirated as the extracted total cell protein; endogenous in cells; host or cells: human peripheral blood mononuclear cells (hPBMCs)
T6 sequence (Q9UKS7 whole entry): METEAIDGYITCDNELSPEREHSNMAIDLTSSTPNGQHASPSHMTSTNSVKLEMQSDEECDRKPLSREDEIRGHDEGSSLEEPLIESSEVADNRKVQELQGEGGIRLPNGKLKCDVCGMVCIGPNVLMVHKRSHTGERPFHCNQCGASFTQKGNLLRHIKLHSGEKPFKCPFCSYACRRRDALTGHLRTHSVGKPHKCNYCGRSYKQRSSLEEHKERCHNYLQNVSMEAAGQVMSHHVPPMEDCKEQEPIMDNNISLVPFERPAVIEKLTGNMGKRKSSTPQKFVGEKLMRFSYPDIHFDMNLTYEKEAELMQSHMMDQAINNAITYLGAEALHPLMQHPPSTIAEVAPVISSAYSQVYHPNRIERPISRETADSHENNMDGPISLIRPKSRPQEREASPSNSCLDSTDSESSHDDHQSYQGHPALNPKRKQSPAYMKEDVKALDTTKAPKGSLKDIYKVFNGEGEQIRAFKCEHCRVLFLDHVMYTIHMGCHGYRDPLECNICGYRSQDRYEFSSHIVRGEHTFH
T6 sequence (Q96SW2 whole entry): as the sequence (Q96SW2 whole entry) above
T6 sequence (Q16531 whole entry partner): as the sequence (Q16531 whole entry partner) above
Outline: as §1

T1 sequence (Q13422 whole entry): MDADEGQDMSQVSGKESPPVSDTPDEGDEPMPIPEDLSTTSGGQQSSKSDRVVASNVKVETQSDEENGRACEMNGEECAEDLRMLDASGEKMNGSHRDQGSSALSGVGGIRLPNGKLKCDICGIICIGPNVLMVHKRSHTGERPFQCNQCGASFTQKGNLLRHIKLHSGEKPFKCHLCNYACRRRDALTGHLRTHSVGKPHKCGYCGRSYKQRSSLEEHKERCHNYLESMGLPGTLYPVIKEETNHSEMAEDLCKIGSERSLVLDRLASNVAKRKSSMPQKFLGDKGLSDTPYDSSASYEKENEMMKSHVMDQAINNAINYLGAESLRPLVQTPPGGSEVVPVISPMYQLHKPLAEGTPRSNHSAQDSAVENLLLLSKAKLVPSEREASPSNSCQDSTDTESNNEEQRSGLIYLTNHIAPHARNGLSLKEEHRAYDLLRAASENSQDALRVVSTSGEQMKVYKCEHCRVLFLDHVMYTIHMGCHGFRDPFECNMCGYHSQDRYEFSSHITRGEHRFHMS
T1 sequence (Q96SW2 whole entry): as the sequence (Q96SW2 whole entry) above
T1 sequence (Q16531 whole entry partner): as the sequence (Q16531 whole entry partner) above

Row | SMILES | IKZF1 substrate protein remaining % [1] | IKZF3 substrate protein remaining % [2] | CK1α substrate protein remaining % [3] | WEE1 substrate protein remaining % [4] | GSPT1 substrate protein remaining % [5] | IKZF2 substrate protein remaining % [6]
1 | O=C1CCN(N2Cc3cc(CN4CCN(c5ccc(Cl)nc5)CC4)ccc3C2=O)C(=O)N1 [GT-05435, 1-(5-((4-(6-chloropyridin-3-yl)piperazin-1-yl)methyl)-1-oxoisoindolin-2-yl)dihydropyrimidine-2,4(1H,3H)-dione] | B (80%< substrate protein remaining % ≤100%) | B (80%< substrate protein remaining % ≤100%) | B (80%< substrate protein remaining % ≤100%) | A (0% ≤ substrate protein remaining % ≤80%) | A (0% ≤ substrate protein remaining % ≤80%) | B (80%< substrate protein remaining % ≤100%)
2 | O=C1CCN(N2Cc3cc(CN4CCN(c5cncc(Cl)c5Cl)CC4)ccc3C2=O)C(=O)N1 [GT-05436, 1-(5-((4-(4,5-dichloropyridin-3-yl)piperazin-1-yl)methyl)-1-oxoisoindolin-2-yl)dihydropyrimidine-2,4(1H,3H)-dione] | B (80%< substrate protein remaining % ≤100%) | B (80%< substrate protein remaining % ≤100%) | B (80%< substrate protein remaining % ≤100%) | A (0% ≤ substrate protein remaining % ≤80%) | A (0% ≤ substrate protein remaining % ≤80%) | B (80%< substrate protein remaining % ≤100%)
3 | O=C1CCN(N2Cc3cc(CN4CCN(c5ccncc5)CC4)ccc3C2=O)C(=O)N1 [GT-05437, 1-(1-oxo-5-((4-(pyridin-4-yl)piperazin-1-yl)methyl)isoindolin-2-yl)dihydropyrimidine-2,4(1H,3H)-dione] | B (80%< substrate protein remaining % ≤100%) | B (80%< substrate protein remaining % ≤100%) | B (80%< substrate protein remaining % ≤100%) | B (80%< substrate protein remaining % ≤100%) | A (0% ≤ substrate protein remaining % ≤80%) | B (80%< substrate protein remaining % ≤100%)
4 | Cc1cc(N2CCN(Cc3ccc4c(c3)CN(N3CCC(=O)NC3=O)C4=O)CC2)ccn1 [GT-05438, 1-(5-((4-(2-methylpyridin-4-yl)piperazin-1-yl)methyl)-1-oxoisoindolin-2-yl)dihydropyrimidine-2,4(1H,3H)-dione] | A (0% ≤ substrate protein remaining % ≤80%) | A (0% ≤ substrate protein remaining % ≤80%) | A (0% ≤ substrate protein remaining % ≤80%) | A (0% ≤ substrate protein remaining % ≤80%) | A (0% ≤ substrate protein remaining % ≤80%) | B (80%< substrate protein remaining % ≤100%)
5 | O=C1CCN(N2Cc3cc(CN4CCN(c5ccncc5F)CC4)ccc3C2=O)C(=O)N1 [GT-05697, 1-(5-((4-(3-fluoropyridin-4-yl)piperazin-1-yl)methyl)-1-oxoisoindolin-2-yl)dihydropyrimidine-2,4(1H,3H)-dione] | B (80%< substrate protein remaining % ≤100%) | B (80%< substrate protein remaining % ≤100%) | B (80%< substrate protein remaining % ≤100%) | A (0% ≤ substrate protein remaining % ≤80%) | A (0% ≤ substrate protein remaining % ≤80%) | B (80%< substrate protein remaining % ≤100%)
6 | O=C1CCN(N2Cc3cc(CN4CCN(C(c5ccccc5)c5cccnc5)CC4)ccc3C2=O)C(=O)N1 (stereo not drawn) [GT-06376, 1-(1-oxo-5-((4-(phenyl(pyridin-3-yl)methyl)piperazin-1-yl)methyl)isoindolin-2-yl)dihydropyrimidine-2,4(1H,3H)-dione] | B (80%< substrate protein remaining % ≤100%) | B (80%< substrate protein remaining % ≤100%) | B (80%< substrate protein remaining % ≤100%) | A (0% ≤ substrate protein remaining % ≤80%) | A (0% ≤ substrate protein remaining % ≤80%) | A (0% ≤ substrate protein remaining % ≤80%)
7 | O=C1CCN(N2C(=O)c3ccc(CN4CCN(C(c5ccccc5)c5cccnc5)CC4)cc3C2=O)C(=O)N1 (stereo not drawn) [GT-06377, 2-(2,4-dioxotetrahydropyrimidin-1(2H)-yl)-5-((4-(phenyl(pyridin-3-yl)methyl)piperazin-1-yl)methyl)isoindoline-1,3-dione] | B (80%< substrate protein remaining % ≤100%) | B (80%< substrate protein remaining % ≤100%) | B (80%< substrate protein remaining % ≤100%) | A (0% ≤ substrate protein remaining % ≤80%) | B (80%< substrate protein remaining % ≤100%) | A (0% ≤ substrate protein remaining % ≤80%)
8 | O=C1CCN(N2C(=O)c3ccc(CN4CCN(C(c5ccccc5)c5ccncc5)CC4)cc3C2=O)C(=O)N1 (stereo not drawn) [GT-06378, 2-(2,4-dioxotetrahydropyrimidin-1(2H)-yl)-5-((4-(phenyl(pyridin-4-yl)methyl)piperazin-1-yl)methyl)isoindoline-1,3-dione] | B (80%< substrate protein remaining % ≤100%) | A (0% ≤ substrate protein remaining % ≤80%) | B (80%< substrate protein remaining % ≤100%) | A (0% ≤ substrate protein remaining % ≤80%) | B (80%< substrate protein remaining % ≤100%) | A (0% ≤ substrate protein remaining % ≤80%)
9 | O=C1CCN(N2C(=O)c3ccc(CN4CCN(C(c5ccccn5)c5ccccn5)CC4)cc3C2=O)C(=O)N1 [GT-06379, 5-((4-(di(pyridin-2-yl)methyl)piperazin-1-yl)methyl)-2-(2,4-dioxotetrahydropyrimidin-1(2H)-yl)isoindoline-1,3-dione] | B (80%< substrate protein remaining % ≤100%) | A (0% ≤ substrate protein remaining % ≤80%) | B (80%< substrate protein remaining % ≤100%) | A (0% ≤ substrate protein remaining % ≤80%) | A (0% ≤ substrate protein remaining % ≤80%) | A (0% ≤ substrate protein remaining % ≤80%)
